Experimental data taken from ChEMBL document CHEMBL4145494, “Synthesis and biological evaluation of aurora kinases inhibitors based on N-trisubstituted pyrimidine scaffold” (Eur J Med Chem, 2018).
The source made the active and inactive calls. The calls are words filed in the database; no cut-off is given here.

Each molecule was assayed on K562 (assay: Antiproliferative activity against human K562 cells after 48 hrs by CCK8 assay). Conditions: K562, 48 h.
Type: functional, cell-based

SMILES	IC50
Cc1cc(Nc2cc(N3CCN(C)CC3)nc(Nc3ccc(Cl)c(F)c3)n2)n[nH]1	218 nM
Cc1cc(Nc2cc(N3CCN(C)CC3)nc(Nc3cccc(F)c3)n2)n[nH]1	184 nM
Cc1cc(Nc2cc(N3CCN(C)CC3)nc(Nc3ccc(F)c(F)c3)n2)n[nH]1	195 nM
Cc1cc(Nc2cc(N3CCN(C)CC3)nc(Nc3ccc(Cl)c(Cl)c3)n2)n[nH]1	128 nM
COC(=O)c1ccc(Nc2nc(Nc3cc(C)[nH]n3)cc(N3CCN(C)CC3)n2)cc1F	393 nM

Each molecule was assayed on U-937 (assay: Antiproliferative activity against human U937 cells after 48 hrs by CCK8 assay). Conditions: U-937, 48 h.
Type: functional, cell-based

SMILES	IC50
Cc1cc(Nc2cc(N3CCN(C)CC3)nc(Nc3ccc(Cl)c(F)c3)n2)n[nH]1	24.8 nM
Cc1cc(Nc2cc(N3CCN(C)CC3)nc(Nc3cccc(F)c3)n2)n[nH]1	33.1 nM
Cc1cc(Nc2cc(N3CCN(C)CC3)nc(Nc3ccc(F)c(F)c3)n2)n[nH]1	29.9 nM
Cc1cc(Nc2cc(N3CCN(C)CC3)nc(Nc3ccc(Cl)c(Cl)c3)n2)n[nH]1	17.9 nM
COC(=O)c1ccc(Nc2nc(Nc3cc(C)[nH]n3)cc(N3CCN(C)CC3)n2)cc1F	94.2 nM

These molecules were tested on MDA-MB-231 (assay: Induction of chromosome alignment defects in human MDA-MB-231 cells at 1 uM after 48 hrs by DAPI staining based immunofluorescence assay). Conditions: not given.
Type: functional, cell-based

SMILES	Activity
COc1cc(Nc2ncc3c(n2)-c2ccc(Cl)cc2C(c2c(F)cccc2OC)=NC3)ccc1C(=O)O	Active

What follows are molecules tested against Aurora kinase B (Homo sapiens, UniProt Q96GD4) (assay: Inhibition of AURKB (unknown origin) using FAM-labeled peptide substrate preincubated for 10 mins followed by substrate addition measured after 60 mins by caliper assay). Conditions: not given.
Sequence of Aurora kinase B (Q96GD4 whole entry): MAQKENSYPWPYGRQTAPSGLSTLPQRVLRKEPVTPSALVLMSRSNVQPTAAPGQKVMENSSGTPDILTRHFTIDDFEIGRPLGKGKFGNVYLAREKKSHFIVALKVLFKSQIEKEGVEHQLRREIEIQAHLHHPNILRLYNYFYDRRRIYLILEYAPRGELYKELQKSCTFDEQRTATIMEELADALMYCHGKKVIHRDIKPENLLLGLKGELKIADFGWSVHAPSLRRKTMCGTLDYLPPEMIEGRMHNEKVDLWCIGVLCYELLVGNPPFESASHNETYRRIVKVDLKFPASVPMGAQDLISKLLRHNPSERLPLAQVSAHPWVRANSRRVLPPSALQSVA

SMILES	IC50
Cc1cc(Nc2cc(N3CCN(C)CC3)nc(Nc3ccc(Cl)c(F)c3)n2)n[nH]1	101 nM
Cc1cc(Nc2cc(N3CCN(C)CC3)nc(Nc3cccc(F)c3)n2)n[nH]1	102 nM
Cc1cc(Nc2cc(N3CCN(C)CC3)nc(Nc3ccc(F)c(F)c3)n2)n[nH]1	89.2 nM
Cc1cc(Nc2cc(N3CCN(C)CC3)nc(Nc3ccc(Cl)c(Cl)c3)n2)n[nH]1	50 nM
COC(=O)c1ccc(Nc2nc(Nc3cc(C)[nH]n3)cc(N3CCN(C)CC3)n2)cc1F	145 nM

These molecules were tested on HeLa (assay: Antiproliferative activity against human HeLa cells after 48 hrs by CCK8 assay). Conditions: not given.
Type: functional, cell-based

SMILES	IC50
Cc1cc(Nc2cc(N3CCN(C)CC3)nc(Nc3ccc(Cl)c(F)c3)n2)n[nH]1	374 nM
Cc1cc(Nc2cc(N3CCN(C)CC3)nc(Nc3cccc(F)c3)n2)n[nH]1	486 nM
Cc1cc(Nc2cc(N3CCN(C)CC3)nc(Nc3ccc(F)c(F)c3)n2)n[nH]1	438 nM
Cc1cc(Nc2cc(N3CCN(C)CC3)nc(Nc3ccc(Cl)c(Cl)c3)n2)n[nH]1	299 nM
COC(=O)c1ccc(Nc2nc(Nc3cc(C)[nH]n3)cc(N3CCN(C)CC3)n2)cc1F	507 nM

What follows are molecules tested on MDA-MB-231 (assay: Inhibition of alpha-tubulin in human MDA-MB-231 cells assessed as abolishment of regular location of protein at 0.5 uM after 48 hrs by DAPI staining based immunofluorescence assay). Conditions: not given.
Type: cell-based

SMILES	inhibition
COc1cc(Nc2ncc3c(n2)-c2ccc(Cl)cc2C(c2c(F)cccc2OC)=NC3)ccc1C(=O)O	Active

These molecules were tested on HCT-116 (assay: Antiproliferative activity against human HCT116 cells after 48 hrs by CCK8 assay). Conditions: HCT-116, 48 h.
Type: functional, cell-based

SMILES	IC50
Cc1cc(Nc2cc(N3CCN(C)CC3)nc(Nc3ccc(Cl)c(F)c3)n2)n[nH]1	252 nM
Cc1cc(Nc2cc(N3CCN(C)CC3)nc(Nc3cccc(F)c3)n2)n[nH]1	317 nM
Cc1cc(Nc2cc(N3CCN(C)CC3)nc(Nc3ccc(F)c(F)c3)n2)n[nH]1	339 nM
Cc1cc(Nc2cc(N3CCN(C)CC3)nc(Nc3ccc(Cl)c(Cl)c3)n2)n[nH]1	106 nM
COC(=O)c1ccc(Nc2nc(Nc3cc(C)[nH]n3)cc(N3CCN(C)CC3)n2)cc1F	688 nM

Each molecule was assayed against T1, Aurora kinase A (Homo sapiens, UniProt O14965) (assay: Inhibition of AURKA (unknown origin) using FAM-labeled peptide substrate preincubated for 10 mins followed by substrate addition measured after 60 mins by caliper assay). Conditions: not given.
T1 sequence (O14965 whole entry): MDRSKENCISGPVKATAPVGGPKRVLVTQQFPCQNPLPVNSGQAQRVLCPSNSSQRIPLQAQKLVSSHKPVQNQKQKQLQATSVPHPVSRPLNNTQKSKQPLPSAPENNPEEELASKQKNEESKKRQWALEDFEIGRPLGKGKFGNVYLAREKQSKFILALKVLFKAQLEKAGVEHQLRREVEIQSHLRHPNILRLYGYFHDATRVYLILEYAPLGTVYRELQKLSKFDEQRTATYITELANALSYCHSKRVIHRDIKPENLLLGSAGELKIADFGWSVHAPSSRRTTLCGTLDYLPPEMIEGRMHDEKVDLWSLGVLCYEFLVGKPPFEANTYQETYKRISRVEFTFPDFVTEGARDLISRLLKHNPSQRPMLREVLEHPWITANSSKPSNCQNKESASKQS

SMILES	IC50
Cc1cc(Nc2cc(N3CCN(C)CC3)nc(Nc3ccc(Cl)c(F)c3)n2)n[nH]1	31 nM
Cc1cc(Nc2cc(N3CCN(C)CC3)nc(Nc3cccc(F)c3)n2)n[nH]1	25 nM
Cc1cc(Nc2cc(N3CCN(C)CC3)nc(Nc3ccc(F)c(F)c3)n2)n[nH]1	17 nM
Cc1cc(Nc2cc(N3CCN(C)CC3)nc(Nc3ccc(Cl)c(Cl)c3)n2)n[nH]1	33 nM
COC(=O)c1ccc(Nc2nc(Nc3cc(C)[nH]n3)cc(N3CCN(C)CC3)n2)cc1F	35 nM

The molecules below were run on MDA-MB-231 (assay: Induction of aberrant spindle formation with tripolar and tetrapolar occurrence in human MDA-MB-231 cells at 1 uM after 48 hrs by DAPI staining based immunofluorescence assay). Conditions: not given.
Type: functional, cell-based

SMILES	Activity
COc1cc(Nc2ncc3c(n2)-c2ccc(Cl)cc2C(c2c(F)cccc2OC)=NC3)ccc1C(=O)O	Active

The molecules below were run on MDA-MB-231 (assay: Antiproliferative activity against human MDA-MB-231 cells after 48 hrs by CCK8 assay). Conditions: MDA-MB-231, 48 h.
Type: functional, cell-based

SMILES	IC50
Cc1cc(Nc2cc(N3CCN(C)CC3)nc(Nc3ccc(Cl)c(F)c3)n2)n[nH]1	155 nM
Cc1cc(Nc2cc(N3CCN(C)CC3)nc(Nc3cccc(F)c3)n2)n[nH]1	166 nM
Cc1cc(Nc2cc(N3CCN(C)CC3)nc(Nc3ccc(F)c(F)c3)n2)n[nH]1	160 nM
Cc1cc(Nc2cc(N3CCN(C)CC3)nc(Nc3ccc(Cl)c(Cl)c3)n2)n[nH]1	84.9 nM
COC(=O)c1ccc(Nc2nc(Nc3cc(C)[nH]n3)cc(N3CCN(C)CC3)n2)cc1F	238 nM

Each molecule was assayed on MCF7 (assay: Antiproliferative activity against human MCF7 cells after 48 hrs by CCK8 assay). Conditions: MCF7, 48 h.
Type: functional, cell-based

SMILES	IC50
Cc1cc(Nc2cc(N3CCN(C)CC3)nc(Nc3ccc(Cl)c(F)c3)n2)n[nH]1	818 nM
Cc1cc(Nc2cc(N3CCN(C)CC3)nc(Nc3cccc(F)c3)n2)n[nH]1	1260 nM
Cc1cc(Nc2cc(N3CCN(C)CC3)nc(Nc3ccc(F)c(F)c3)n2)n[nH]1	1290 nM
Cc1cc(Nc2cc(N3CCN(C)CC3)nc(Nc3ccc(Cl)c(Cl)c3)n2)n[nH]1	552 nM
COC(=O)c1ccc(Nc2nc(Nc3cc(C)[nH]n3)cc(N3CCN(C)CC3)n2)cc1F	7630 nM

What follows are molecules tested on A-431 (assay: Antiproliferative activity against human A431 cells after 48 hrs by CCK8 assay). Conditions: A-431, 48 h.
Type: functional, cell-based

SMILES	IC50
Cc1cc(Nc2cc(N3CCN(C)CC3)nc(Nc3ccc(Cl)c(F)c3)n2)n[nH]1	136 nM
Cc1cc(Nc2cc(N3CCN(C)CC3)nc(Nc3cccc(F)c3)n2)n[nH]1	201 nM
Cc1cc(Nc2cc(N3CCN(C)CC3)nc(Nc3ccc(F)c(F)c3)n2)n[nH]1	177 nM
Cc1cc(Nc2cc(N3CCN(C)CC3)nc(Nc3ccc(Cl)c(Cl)c3)n2)n[nH]1	129 nM
COC(=O)c1ccc(Nc2nc(Nc3cc(C)[nH]n3)cc(N3CCN(C)CC3)n2)cc1F	375 nM
